Patent US20080076762A1, “Novel 4-Aminopiperidine Derivatives” (priority 2004, published 2008)

Columns and labels:
plasmepsin II = plasmepsin II (Plasmodium falciparum, UniProt Q8I6V3); experiment: FRET assay for plasmepsin II; assay type: biochemical; conditions: pH 5, 37° C., substrate M-2120 1 μM
Procedure: (§1) The Fluorescence Resonance Energy Transfer (FRET) Assay for Plasmepsin II & IV and Human Cathepsin D & E:
(§2) The assay conditions are selected according to reports in the literature.
(§3) The FRET assay is performed in white polysorp plates (Fluoronunc, cat no 264 572) at 37° C. with a final volume of 80 μl.
(§4) The assay buffer is composed of 50 mM sodium acetate pH 5, 12.5% (w/v) glycerol, and 0.1% (w/v) BSA. The reaction consists of the following components: 60 μl assay buffer, 4 μl inhibitor (in DMSO), 8 μl substrate (M-2120 from BACHEM) to a final concentration of 1 μM and 8 μl enzyme (plasmepsin II, plasmepsin IV or cathepsin E to a final amount of 0.015 μg/ml per assay tube, cathepsin D to a final amount of 0.05 μg/ml per assay tube). The inhibitor is pre-diluted in DMSO in a dilution plate and six concentrations are prepared in duplicate. The compounds are usually tested at a final concentration varying from 1 nM to 100 μM. The substrate is diluted using 50% DMSO-50% assay buffer and the enzyme using assay buffer. The mixtures are then incubated for 3 h at 37° C. and the fluorescence is determined at 1 and 3 hour with a FluoroStar Galaxy from BMG using excitation and emission filters of 355 and 520 nm, respectively.
(§5) Auto-fluorescence of all the test substances is determined in assay buffer in the absence of substrate and enzyme and this value is subtracted from the final signal.
(§6) The inhibitory activity of the compounds is expressed as IC50, which represents the concentration of compound that inhibits 50% of the maximal (uninhibited) enzyme activity.

plasmepsin IV = plasmepsin IV (Plasmodium falciparum, UniProt Q8IM16); experiment: FRET assay for plasmepsin IV; assay type: biochemical; conditions: pH 5, 37° C., substrate M-2120 1 μM
plasmepsin IV, sequence (Q8IM16 122-449): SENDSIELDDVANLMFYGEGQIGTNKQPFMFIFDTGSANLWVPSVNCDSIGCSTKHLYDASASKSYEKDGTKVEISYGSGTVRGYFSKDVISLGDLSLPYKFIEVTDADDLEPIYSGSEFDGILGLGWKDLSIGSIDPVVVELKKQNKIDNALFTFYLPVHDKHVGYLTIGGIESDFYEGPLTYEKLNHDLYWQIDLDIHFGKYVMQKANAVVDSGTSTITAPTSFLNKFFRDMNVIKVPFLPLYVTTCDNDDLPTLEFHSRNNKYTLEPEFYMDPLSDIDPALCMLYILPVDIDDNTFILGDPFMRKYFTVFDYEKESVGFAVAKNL
Procedure: as §1, §2, §3, §4, §5, §6

plasmepsin II, sequence (Q8I6V3 125-453): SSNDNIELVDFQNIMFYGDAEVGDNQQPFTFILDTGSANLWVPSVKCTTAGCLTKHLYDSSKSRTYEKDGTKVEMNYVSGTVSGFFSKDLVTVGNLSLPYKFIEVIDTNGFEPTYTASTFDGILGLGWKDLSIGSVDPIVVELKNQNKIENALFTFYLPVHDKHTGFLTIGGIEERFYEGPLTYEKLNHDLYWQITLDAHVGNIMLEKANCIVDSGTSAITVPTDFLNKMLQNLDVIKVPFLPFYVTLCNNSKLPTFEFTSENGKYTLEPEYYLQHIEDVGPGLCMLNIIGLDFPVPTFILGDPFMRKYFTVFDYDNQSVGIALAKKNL

Row | IC50 (plasmepsin II) [nM] | IC50 (plasmepsin IV) [nM] | Structure (SMILES)
1 | 51 | 359 | CCCCCc1ccc(C(=O)N(Cc2ccc(N3CCSCC3)nc2)C2CCN(CCC(C)C)CC2)nc1 [Example 226]
2 | 10 | 635 | CCCCCc1ccc(C(=O)N(Cc2ccc(-c3ccc(C(=O)N4CCCCC4)cc3)cc2)C2CCN(CCC(C)C)CC2)nc1 [Example 163]
3 | 40 | 1110 | CCCCCc1ccc(C(=O)N(Cc2ccc(C(=O)NCc3c(F)cccc3F)cc2)C2CCN(CCC(C)C)CC2)nc1 [Example 223, 5-Pentyl-pyridine-2-carboxylic acid [4-(2,6-difluoro-benzylcarbamoyl)-benzyl]-[1-(3-methyl-butyl)-piperidin-4-yl]-amide]
4 | 77 | – | CCCCCc1ccc(C(=O)N(Cc2ccc(-c3ccc(C(=O)N4CCCCC4)cc3)cc2)C2CCN(CCC(C)C)CC2)s1 [Example 88]
5 | 41 | 56 | CCCCCc1ccc(C(=O)N(Cc2ccc(-c3ccc(Cl)c(Cl)c3)o2)C2CCN(CCC(C)C)CC2)cc1 [Example 220, N-[5-(3,4-dichloro-phenyl)-furan-2-ylmethyl]-N-[1-(3-methyl-butyl)-piperidin-4-yl]-4-pentyl-benzamide]
6 | 16 | 22 | CCCCCc1ccc(C(=O)N(Cc2ccc(-c3cccc(C)c3)cc2)C2CCN(CCC(C)C)CC2)nc1 [Example 166, 5-Pentyl-pyridine-2-carboxylic acid (3′-methyl-biphenyl-4-ylmethyl)-[1-(3-methyl-butyl)-piperidin-4-yl]-amide]
